Conditions: 101 kPa, Liquid mixture 1, Pendant Drop method

CCCC[N+]1(C)CCCC1.O=S(=O)([N-]S(=O)(=O)C(F)(F)F)C(F)(F)F + CCCCO
Conditions	interfacial tension [mN/m]
293.15 K	0.666
295.65 K	0.576
298.15 K	0.443
300.65 K	0.368
303.15 K	0.276
305.65 K	0.163

From the NIST ThermoML archive (doi:10.1021/je201391j)
